Test results from patent US3954985A, “Method for inhibiting bacterial growth with certain selected 3-chloro-tetrahydro-1,3-oxazines or oxazolidines” (INTERx Research Corporation, priority 1975, dated 1976).
Where “and” joins values, the source holds several entries; their conditions need not be identical. Equal values may be shown once.

Tests used:
Staph. aureus ATCC 6538 = assay: Bactericidal endpoint (time for complete sterilization), ATCC 6538; type: cell-based
Description: (§1) The procedure employed to determine the antibacterial activity of 3-chloro-2,2,4,4-tetramethyl-tetrahydro1,3-oxazolidine and 3-chloro-2,2-[spiro-1'-methyl-4'-piperidinyl]-4,4-dimethyl-1,3-oxazolidinewas based primarily on a modification of the serial dilution method of analysis. However, instead of determining the minimum inhibitory concentration parameters for the compound investigated, applicants alternatively chose to determine the bactericidal endpoint for a given concentration of the compound investigated. Consequently, applicants' studies were established to determine the time required for complete sterilization of the micro-organism tested, when exposed to a given concentration of the compound investigated.
(§2) A stock solution of each compound identified above was prepared using an appropriate buffered solution.
(§3) For screening in the absence of a denaturing agent (e.g., horse serum) an equal volume of distilled water and the resulting solution was subjected to the screen.
(§4) For screening in the presence of a denaturing agent, a volume of the stock solution was diluted using an equal volume of 10% horse serum. When necessary, the final solution was adjusted to the desired pH using 1N HCl and the solution was permitted to stand at room temperature for thirty minutes prior to the screening procedure.
(§5) To 5 ml of the stock solution being evaluated, there was added 0.2 ml of an overnight broth culture containing the particular micro-organism being investigated (see above). At time intervals of 0.5, 1, 2, 3, 4, 5, . . . minutes, a loop of this suspension was subcultured into 5 ml of a sterile nutrient broth. All the samples were then incubated at 37°C for seven days with daily observation for evidence of bacterial growth. The time interval reported is for that sample in which no bacterial growth was observed after the incubation period.

E. coli ATCC 10536 = assay: Bactericidal endpoint (time for complete sterilization), ATCC 10536; type: cell-based
Description: as §1, §2, §3, §4, §5

[1] = Stability in the neat state at 40°C (positive chlorine by thiosulfate titration); type: physicochemical
Description: ^a Weight of sample analyzed.
^b Volume of 10^^-2 N sodium thiosulfate required to titrate
the sample at time (T).
^c Percentage of positive chlorine in the sample analyzed.

[2] = test system: Staph. epidermidis ATCC 12228; assay: Bactericidal endpoint (time for complete sterilization), ATCC 12228; type: cell-based
Description: as §1, §2, §3, §4, §5

[3] = test system: Kleb. pneumoniae ATCC 10031; assay: Bactericidal endpoint (time for complete sterilization), ATCC 10031; type: cell-based
Description: as §1, §2, §3, §4, §5

6501 = assay: Bactericidal endpoint (time for complete sterilization), 6501; type: cell-based
Description: as §1, §2, §3, §4, §5

[4] = test system: Pseud. aeruginosa ATCC 9027; assay: Bactericidal endpoint (time for complete sterilization), ATCC 9027; type: cell-based
Description: as §1, §2, §3, §4, §5

[5] = test system: Bord. bronchiseptica ATCC 4617; assay: Bactericidal endpoint (time for complete sterilization), ATCC 4617; type: cell-based
Description: as §1, §2, §3, §4, §5

[6] = 0.5 M NaH2PO4 pH 7.0, diluent not given, 19.13 × 10^-3 M (6026 ppm)
[7] = 0.5 M NaH2PO4 pH 710 (so in the source), H2O, 19.75 × 10^-3 M (6221 ppm)
[8] = 0.5 M NaOAc pH 4.6, H2O, 17.0 × 10^-3 (5355 ppm)
[9] = 0.5 M NaOAc pH 4.6, Serum, 17.0 × 10^-3 (5355 ppm)

For CN1CCC2(CC1)OCC(C)(C)N2Cl, the “Antibacterial activity, time, 6538” value (Staph. aureus ATCC 6538; [6]) was > 10 min, the “Antibacterial activity, time, 6538” value (Staph. aureus ATCC 6538; [7]) was 4 min and the “Antibacterial activity, time, 6538” value (Staph. aureus ATCC 6538; [8]) was 1 min. For the same compound, the “Antibacterial activity, time, 6538” value (Staph. aureus ATCC 6538; [9]) was 6 min, the “Antibacterial activity, time, 10536” value (E. coli ATCC 10536; [6]) was 4 min and the “Antibacterial activity, time, 10536” value (E. coli ATCC 10536; [7]) was 1 min. The “Antibacterial activity, time, 10536” value (E. coli ATCC 10536; [8]) was 0.5 min, the “Antibacterial activity, time, 10536” value (E. coli ATCC 10536; [9]) was 0.5 min and the “%Cl (percentage of positive chlorine in the sample analyzed)” value ([1]; 0 days) was 10.6%. The “%Cl (percentage of positive chlorine in the sample analyzed)” value ([1]; 1 day) was 10.2% and 10.3%, the “%Cl (percentage of positive chlorine in the sample analyzed)” value ([1]; 2 days) was 10.3% and 9.8% and the “%Cl (percentage of positive chlorine in the sample analyzed)” value ([1]; 3 days) was 9.8% and 10.0%. The “%Cl (percentage of positive chlorine in the sample analyzed)” value ([1]; 4 days) was 9.4%, the “%Cl (percentage of positive chlorine in the sample analyzed)” value ([1]; 5 days) was 9.7% and the “%Cl (percentage of positive chlorine in the sample analyzed)” value ([1]; 7 days) was 9.3% and 9.7%. For the same compound, the “%Cl (percentage of positive chlorine in the sample analyzed)” value ([1]; 10 days) was 9.8%, the “%Cl (percentage of positive chlorine in the sample analyzed)” value ([1]; 14 days) was 8.8% and 9.0% and the “%Cl (percentage of positive chlorine in the sample analyzed)” value ([1]; 21 days) was 9.4%. The “%Cl (percentage of positive chlorine in the sample analyzed)” value ([1]; 28 days) was 9.4% and 9.1%, the “%Cl (percentage of positive chlorine in the sample analyzed)” value ([1]; 35 days) was 8.9% and 9.0% and the “%Cl (percentage of positive chlorine in the sample analyzed)” value ([1]; 51 days) was 8.0%. The “Antibacterial activity, time, 12228” value [2, 6] was > 10 min, the “Antibacterial activity, time, 12228” value [2, 7] was 4 min and the “Antibacterial activity, time, 12228” value [2, 8] was 0.5 min. The “Antibacterial activity, time, 12228” value [2, 9] was 2 min, the “Antibacterial activity, time, 10031” value [3, 6] was > 10 min and the “Antibacterial activity, time, 10031” value [3, 7] was 1 min. For the same compound, the “Antibacterial activity, time, 10031” value [3, 8] was 0.5 min, the “Antibacterial activity, time, 10031” value [3, 9] was 1 min and the “Antibacterial activity, time, 6501” value 6501; [6] was > 10 min. The “Antibacterial activity, time, 6501” value 6501; [7] was 1 min, the “Antibacterial activity, time, 6501” value 6501; [8] was 0.5 min and the “Antibacterial activity, time, 6501” value 6501; [9] was 1 min. The “Antibacterial activity, time, 9027” value [4, 6] was > 10 min, the “Antibacterial activity, time, 9027” value [4, 7] was 1 min and the “Antibacterial activity, time, 9027” value [4, 8] was 0.5 min. The “Antibacterial activity, time, 9027” value [4, 9] was 1 min, the “Antibacterial activity, time, 4617” value [5, 6] was > 10 min and the “Antibacterial activity, time, 4617” value [5, 7] was 1 min. The “Antibacterial activity, time, 4617” value [5, 8] was 0.5 min and the “Antibacterial activity, time, 4617” value [5, 9] was 1 min.
